The record followed here is ChEMBL document CHEMBL1201862, “PubChem BioAssay data set” (2004).

Activity calls are given as the source filed them.

Assay [1] addresses T1, Protein skinhead-1 (Caenorhabditis elegans, UniProt P34707).
T1 sequence (P34707 whole entry): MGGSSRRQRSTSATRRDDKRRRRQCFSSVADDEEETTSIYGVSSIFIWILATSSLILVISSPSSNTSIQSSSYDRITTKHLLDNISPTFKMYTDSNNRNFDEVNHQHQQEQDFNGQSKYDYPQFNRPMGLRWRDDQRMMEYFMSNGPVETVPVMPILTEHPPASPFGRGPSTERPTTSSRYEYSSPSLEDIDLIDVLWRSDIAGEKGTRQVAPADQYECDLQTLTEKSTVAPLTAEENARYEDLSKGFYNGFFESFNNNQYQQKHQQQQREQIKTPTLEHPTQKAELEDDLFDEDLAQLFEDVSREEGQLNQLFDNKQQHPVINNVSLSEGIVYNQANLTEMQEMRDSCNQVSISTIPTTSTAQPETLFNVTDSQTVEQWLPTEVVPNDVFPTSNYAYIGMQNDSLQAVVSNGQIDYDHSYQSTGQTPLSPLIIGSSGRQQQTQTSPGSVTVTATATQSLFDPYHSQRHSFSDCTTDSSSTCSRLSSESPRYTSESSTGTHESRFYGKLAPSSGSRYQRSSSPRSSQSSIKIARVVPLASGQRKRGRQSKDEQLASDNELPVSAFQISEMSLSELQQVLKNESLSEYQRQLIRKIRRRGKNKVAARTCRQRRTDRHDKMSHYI
In kind it is functional.

Assay [2] deals with FAD-linked sulfhydryl oxidase ALR (Homo sapiens, UniProt P55789). Kind of assay: inhibitors of human ALR sulfhydryl oxidase, dose response, biochemical, H2O2 detection, luminescence, cherry-pick (AID 493248).
Sequence of FAD-linked sulfhydryl oxidase ALR (P55789 whole entry): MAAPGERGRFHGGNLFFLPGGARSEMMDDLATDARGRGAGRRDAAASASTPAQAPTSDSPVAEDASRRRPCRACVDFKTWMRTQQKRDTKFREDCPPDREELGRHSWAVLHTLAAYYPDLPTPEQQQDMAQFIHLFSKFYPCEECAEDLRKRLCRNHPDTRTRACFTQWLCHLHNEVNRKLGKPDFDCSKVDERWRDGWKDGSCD
Assay [3] addresses T2, Heat shock factor protein 1 (Mus musculus, UniProt P38532).
T2 sequence (P38532 whole entry): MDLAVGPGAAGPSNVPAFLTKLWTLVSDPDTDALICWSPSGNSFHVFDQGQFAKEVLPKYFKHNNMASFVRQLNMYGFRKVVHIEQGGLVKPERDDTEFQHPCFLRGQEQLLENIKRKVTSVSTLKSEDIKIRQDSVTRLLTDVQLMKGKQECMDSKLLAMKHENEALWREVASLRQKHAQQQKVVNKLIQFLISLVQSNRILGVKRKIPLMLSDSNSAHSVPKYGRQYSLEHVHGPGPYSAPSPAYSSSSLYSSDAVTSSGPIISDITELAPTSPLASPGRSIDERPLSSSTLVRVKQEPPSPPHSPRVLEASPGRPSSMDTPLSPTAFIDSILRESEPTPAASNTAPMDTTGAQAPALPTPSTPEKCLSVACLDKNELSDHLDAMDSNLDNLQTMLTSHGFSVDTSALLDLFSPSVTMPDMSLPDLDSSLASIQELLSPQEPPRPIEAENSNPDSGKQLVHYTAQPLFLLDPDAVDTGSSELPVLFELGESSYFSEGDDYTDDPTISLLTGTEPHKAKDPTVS
Kind of assay: HSF1 potentiators in luciferase reporter cells, confirmation, cell-based, NIH3T3, luminescence, dose retest (AID 435004).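 Also: stress induced by proteasome inhibitor MG132 added 30 min after compound; luciferase reporter driven by HSF1 response element in NIH3T3 cells; actives raise luminescence as potentiators of the MG132 stress response.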 Format: functional. A general note: A reporter such as luciferase makes a cellular process visible.

The nature of assay [4]: inhibitors of intracellular T. cruzi replication, confirmation, NIH3T3 host cells, beta-gal luminescence (AID 2044).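 Also: intracellular parasites grown in NIH/3T3 mouse fibroblasts as host cells; luminescent beta-galactosidase reporter signal from transgenic T. cruzi replicating inside host cells; inhibitors lower the luminescence signal.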 Format: functional, cell-based.
Assay [5] in a line: microbe, parasite or virus in culture. Format: functional. The following applies: Mycobacterium tuberculosis.
Assay [6] in a line: cytotoxicity toward NIH3T3 fibroblasts, dose response, counter-screen, cell-based, ATP luminescence, mouse fibroblasts (AID 2010).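 Also: cells exposed to compound for about 90 hours before reading.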 Format: functional. In general terms: A counterscreen serves to expose hits that act by an unwanted route or on another target.
The target in assay [7] is T3, Replicative DNA helicase DnaB (Mycobacterium tuberculosis, UniProt P9WMR3).
T3 sequence (P9WMR3 whole entry): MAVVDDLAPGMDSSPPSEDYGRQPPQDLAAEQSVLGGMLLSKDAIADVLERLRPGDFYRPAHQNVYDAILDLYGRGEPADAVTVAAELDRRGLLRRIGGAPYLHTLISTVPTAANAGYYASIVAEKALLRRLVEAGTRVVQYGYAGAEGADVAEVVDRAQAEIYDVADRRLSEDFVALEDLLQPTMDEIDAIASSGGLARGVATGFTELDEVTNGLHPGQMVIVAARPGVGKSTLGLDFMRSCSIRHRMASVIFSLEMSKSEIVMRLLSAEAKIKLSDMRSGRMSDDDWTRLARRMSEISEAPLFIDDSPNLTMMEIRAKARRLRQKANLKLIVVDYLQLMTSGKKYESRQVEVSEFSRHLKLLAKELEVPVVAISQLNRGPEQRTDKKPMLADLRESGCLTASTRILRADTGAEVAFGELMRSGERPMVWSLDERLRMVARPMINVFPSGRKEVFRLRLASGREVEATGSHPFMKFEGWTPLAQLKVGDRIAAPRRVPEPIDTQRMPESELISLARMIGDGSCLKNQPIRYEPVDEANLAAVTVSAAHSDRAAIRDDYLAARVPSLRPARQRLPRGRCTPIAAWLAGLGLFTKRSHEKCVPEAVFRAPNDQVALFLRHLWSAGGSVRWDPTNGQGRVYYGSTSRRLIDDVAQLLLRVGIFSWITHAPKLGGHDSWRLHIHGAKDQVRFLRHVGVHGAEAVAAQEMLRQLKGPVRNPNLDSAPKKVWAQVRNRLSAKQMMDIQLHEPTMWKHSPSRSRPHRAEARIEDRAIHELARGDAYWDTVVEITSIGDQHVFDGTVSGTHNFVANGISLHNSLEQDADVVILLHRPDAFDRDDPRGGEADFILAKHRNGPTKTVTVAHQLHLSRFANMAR
The assay is described as follows: DnaB intein splicing inhibitors, dose response, biochemical, cell-free fluorescence (AID 449749). Format: functional.

In assay [8] the target is T4, Protein RecA (Mycobacterium tuberculosis, UniProt P9WHJ3).
T4 sequence (P9WHJ3 whole entry): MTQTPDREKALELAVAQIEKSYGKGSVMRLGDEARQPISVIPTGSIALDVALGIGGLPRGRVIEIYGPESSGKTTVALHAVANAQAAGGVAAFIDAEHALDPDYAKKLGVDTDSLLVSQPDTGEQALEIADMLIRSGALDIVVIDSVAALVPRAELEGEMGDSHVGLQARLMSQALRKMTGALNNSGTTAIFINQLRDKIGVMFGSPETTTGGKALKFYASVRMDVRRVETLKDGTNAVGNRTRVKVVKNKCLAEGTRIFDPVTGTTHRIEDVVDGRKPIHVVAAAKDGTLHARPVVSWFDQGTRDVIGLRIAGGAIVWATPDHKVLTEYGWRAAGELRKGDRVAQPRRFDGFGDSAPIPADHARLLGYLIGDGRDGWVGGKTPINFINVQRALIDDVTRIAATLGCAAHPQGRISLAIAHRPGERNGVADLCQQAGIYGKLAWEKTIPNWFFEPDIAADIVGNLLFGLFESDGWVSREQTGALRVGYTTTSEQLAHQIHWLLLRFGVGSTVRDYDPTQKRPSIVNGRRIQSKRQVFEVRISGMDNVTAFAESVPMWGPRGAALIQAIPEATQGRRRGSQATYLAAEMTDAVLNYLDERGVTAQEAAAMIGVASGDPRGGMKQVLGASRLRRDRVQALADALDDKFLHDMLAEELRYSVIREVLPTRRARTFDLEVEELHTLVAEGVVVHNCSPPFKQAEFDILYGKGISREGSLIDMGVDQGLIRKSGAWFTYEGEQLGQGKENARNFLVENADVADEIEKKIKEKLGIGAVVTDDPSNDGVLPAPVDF
Kind of assay: Fluorescence Cell-Free Homogeneous Dose Retest to Identify Inhibitors of RecA-Intein Splicing Activity. [Related pubchem assays (depositor defined):AID2097, AID2223, AID489010, AID492950]. In kind it is functional.

With `O=c1c2cc3c(cc2[nH]c(=S)n1Cc1ccco1)OCO3`, the IC50 in assay [1] is > 100 µM (inactive).
As to `O=C(Nc1nc(-c2ccccc2)cs1)c1cccs1`, the IC50 in assay [1] is 59.9 µM (inactive).
Same read-out and setting: then `Cc1cccc(-c2nc3c(c(SCC(=O)N4CCOCC4)n2)CCCC3)c1`, with > 100 µM (inactive).
With `CC(C)CN1C(=O)NC(NS(=O)(=O)c2ccc(N)cc2)(C(F)(F)F)C1=O` (stereo unspecified), in assay [2], the AC50 was 0.73 µM (active).
As to `CCCC(=O)N(CCN1CCOCC1)c1nc2c(OCC)cccc2s1`, the IC50 in assay [1] was > 100 µM (inactive).
Still for that read-out and setting: then `CC1(Cc2ccc(OC(F)(F)F)cc2)C(=O)Nc2ccc(OC(F)(F)F)cc21` (stereo unspecified), with 34.3 µM (active).
The same measure, in the same setting: with `COc1ccc(-c2cc(C(=O)Nc3c(C)n(C)n(-c4ccccc4)c3=O)c3ccccc3n2)c(OC)c1` the figure was > 100 µM (inactive); with `c1ccc(-c2cnc(-c3ccccc3)nn2)cc1`, 78.4 µM (inactive).
In the case of `O=S(=O)(Nc1ccc(N2CCCCC2)cc1)c1ccccc1F`, the AC50 in assay [2] was 2.08 µM (active).
As for `Cc1c(NC(=O)CSc2ccc3c(c2)OCCO3)c(=O)n(-c2ccccc2)n1C`, the IC50 in assay [1] is > 100 µM (inactive).
Same read-out and setting: then `COc1ccc(CNC(C)C(=O)Nc2ccc3ccccc3c2)cc1OC` (stereo unspecified), with > 100 µM (inactive).
As for `COC(=O)c1ccccc1N=Nc1c(N)n[nH]c1N`, the concentration at half-maximal activity (AC50) in assay [2] was 6.65 µM (active).
Turning to `O=C(/C=C/Nc1ccccc1)c1ccccc1`, the EC50 in assay [3] is > 260 µM (inconclusive). The IC50 in assay [1] is > 100 µM (inactive).
For `N#CCC(=O)Nc1ccc(C(=O)Nc2cccnc2)cc1`, the AC50 in assay [2] is 0.87 µM (active).
Regarding `Cc1[nH]c(C)c(S(=O)(=O)NCc2ccc(N(C)C)cc2)c1C(=O)N1CCCC1`, the AC50 in assay [2] is 16.1 µM (active).
For the molecule `COc1ccc(C2C(C(=O)OC(C)C)=C(C)N=c3s/c(=C\c4cccs4)c(=O)n32)cc1` (stereo unspecified), the IC50 in assay [1] is > 100 µM (inactive).
For the molecule `Fc1cccc(-c2csc(-c3ccno3)n2)c1`, the IC50 in assay [1] is > 100 µM (inactive).
`O=C(NCc1ccncc1)c1ccc(-c2ccc(F)c(F)c2)c2ccoc12`: in assay [1], the IC50 is 20.2 µM (active).
Consider `Cc1ccc(NC(=O)COC(=O)C2(C)CC2(Cl)Cl)cc1S(=O)(=O)N1CCOCC1` (stereo unspecified), for which the IC50 in assay [1] was > 100 µM (inactive).
With `CN(NC1CC(=O)N(c2ccccc2)C1=O)c1ccccc1` (stereo unspecified), the AC50 in assay [2] was 6.83 µM (active).
As to `Cc1ccccc1-n1c(SCC(=O)N/N=C/c2c(C)nn(-c3ccccc3)c2C)nc2ccccc2c1=O`, the EC50 in assay [4] is 1.6 µM (active); in assay [6] it was > 60 µM (not active). Moreover, the CC50 in assay [5] was > 40 µM (active).
With `CC(=O)N1CCN=C1SCc1c(F)cccc1Cl`, the AC50 in assay [2] was 0.631 µM (active).
Consider `Cc1cc2ncn(C(=O)c3ccc(F)cc3)c2cc1C`, for which the half-maximal activity concentration (AC50) in assay [2] was 5.34 µM (active).
`O=C(c1cccc(-c2ccco2)c1)N1CCCC(N2CCN(c3ccc(F)cc3)CC2)C1` (stereo unspecified): the CC50 in assay [5] was > 40 µM (active).
For `O=C1/C(=C\c2ccc(C(F)(F)F)cc2)CSc2sccc21`, in assay [1], the IC50 was 69.4 µM (inactive).
As to `COc1cc(/C=N/N2C(C)CCCC2C)cc(Br)c1O` (stereo unspecified), in assay [2], the AC50 was 0.495 µM (active).
With `CC/C(=C\c1ccc(Cl)cc1)c1ccncc1`, in assay [1], the IC50 is 13.5 µM (active).
Consider `C/C(CC(=O)Nc1ccc(Cl)cc1C(F)(F)F)=N\NC(N)=S`, for which the CC50 in assay [5] was > 40 µM (active).
For `Cc1ccc(N(CCC#N)C(=O)CCl)cc1C`, the concentration giving a half-maximal response (EC50) was 3.59 µM (active) in assay [4], 4.81 µM (active) in assay [6] and 5.7 µM (active) in assay [8]. For the same molecule, the CC50 in assay [5] was 1.84 µM (active). Also, the AC50 in assay [7] is 167 µM (active).
With `Cc1nc(NC(=O)C2CC3CCCC(C2)C3=O)sc1C` (stereo unspecified), the IC50 in assay [1] is > 100 µM (inactive).
`c1ccc(CN2CCC(=NNc3nc4ccccc4[nH]3)CC2)cc1`: the AC50 in assay [2] was 2.31 µM (active).
As for `Cc1cc(C(=O)N/N=C\C(Br)=C\c2ccccc2)c(C)o1`, the CC50 in assay [5] is > 40 µM (active).
As for `Cc1ccc(S(=O)(=O)NN2C(=O)/C(=C/c3cccnc3)SC2=S)cc1`, the AC50 in assay [2] was 4.96 µM (active).
For the molecule `Clc1ccc(-c2cn3cccnc3n2)cc1Cl`, in assay [1], the IC50 is > 100 µM (inactive).

Usually IC50 stands for the concentration that inhibits the measured activity by half. Usually AC50 stands for the concentration giving half of the maximal activity seen. As a reminder, the EC50 is the concentration needed to bring the measured effect to its halfway point.
